# The supplement of paper PMC10307832
# Experiments:
# Assay in all cases: relative viability (nuclei count vs DMSO), 5 days (fraction); higher = more cells survive
# Tipifarnib = compound: Cn1cncc1[C@@](N)(c1ccc(Cl)cc1)c1ccc2c(c1)c(-c1cccc(Cl)c1)cc(=O)n2C [Tipifarnib]
# How it was run: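 Lung cancer cell lines received five library-drug doses (not always all listed) spaced by √10, pinned on vehicle-anchored 1536-well plates after an overnight stay at 37 °C. Five days later, with no medium change, nuclei were Hoechst-stained, imaged at 4× and counted with MetaXpress. Viability is treated-well nuclei relative to vehicle-well nuclei, as a median across plates. Passing plates had control CV below 25% and at least one doubling.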
# Tipifarnib + Navitoclax = compound: Cn1cncc1[C@@](N)(c1ccc(Cl)cc1)c1ccc2c(c1)c(-c1cccc(Cl)c1)cc(=O)n2C [Tipifarnib] + CC1(C)CCC(c2ccc(Cl)cc2)=C(CN2CCN(c3ccc(C(=O)NS(=O)(=O)c4ccc(N[C@H](CCN5CCOCC5)CSc5ccccc5)c(S(=O)(=O)C(F)(F)F)c4)cc3)CC2)C1 [Navitoclax] (partner 0.5 µM)
# How it was run: (§1)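 Nuclei were stained with Hoechst during a one-step fixation (final 0.05% Triton X-100, 1% formaldehyde, 1 ug/ml Hoechst) carried out 5 days after dosing, then counted on 4× images. The cells, lung cancer lines in 1536-well plates, had been dosed by pin tool the day after seeding with one drug alone or a fixed anchor-drug dose plus five library-drug doses (not always all listed) in √10 steps. Relative viability is the nuclei count in treated wells divided by that in vehicle wells, and each value is the median of duplicate plates.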
# Tipifarnib + Tozasertib = compound: Cn1cncc1[C@@](N)(c1ccc(Cl)cc1)c1ccc2c(c1)c(-c1cccc(Cl)c1)cc(=O)n2C [Tipifarnib] + Cc1cc(Nc2cc(N3CCN(C)CC3)nc(Sc3ccc(NC(=O)C4CC4)cc3)n2)n[nH]1 [Tozasertib] (partner 0.1 µM)
# How it was run: as §1
# Tipifarnib + Phenformin = compound: Cn1cncc1[C@@](N)(c1ccc(Cl)cc1)c1ccc2c(c1)c(-c1cccc(Cl)c1)cc(=O)n2C [Tipifarnib] + N=C(N)NC(=N)NCCc1ccccc1 [Phenformin] (partner 250 µM)
# How it was run: as §1
Cell Line,relative viability (Tipifarnib; 0.01 µM),relative viability (Tipifarnib; 0.03162 µM),relative viability (Tipifarnib; 0.1 µM),relative viability (Tipifarnib; 0.3162 µM),relative viability (Tipifarnib; 1 µM),relative viability (Tipifarnib + Navitoclax; first compound 0.01 µM),relative viability (Tipifarnib + Navitoclax; first compound 0.03162 µM),relative viability (Tipifarnib + Navitoclax; first compound 0.1 µM),relative viability (Tipifarnib + Navitoclax; first compound 0.3162 µM),relative viability (Tipifarnib + Navitoclax; first compound 1 µM),relative viability (Tipifarnib + Tozasertib; first compound 0.01 µM),relative viability (Tipifarnib + Tozasertib; first compound 0.03162 µM),relative viability (Tipifarnib + Tozasertib; first compound 0.1 µM),relative viability (Tipifarnib + Tozasertib; first compound 0.3162 µM),relative viability (Tipifarnib + Tozasertib; first compound 1 µM),relative viability (Tipifarnib + Phenformin; first compound 0.01 µM),relative viability (Tipifarnib + Phenformin; first compound 0.03162 µM),relative viability (Tipifarnib + Phenformin; first compound 0.1 µM),relative viability (Tipifarnib + Phenformin; first compound 0.3162 µM),relative viability (Tipifarnib + Phenformin; first compound 1 µM)
HARA,1.14,1.03,1.04,0.826,0.348,1.18,1.14,1.18,1.14,1.13,0.123,0.0922,0.102,0.0898,0.0758,0.52,0.494,0.501,0.412,0.156
HCC-15,0.846,0.835,0.699,0.551,0.271,0.66,0.618,0.555,0.335,0.334,0.242,0.227,0.227,0.153,0.174,0.407,0.392,0.368,0.338,0.223
HCC-44,0.967,0.871,0.802,0.729,0.472,1.06,0.944,0.784,0.726,0.696,0.935,0.665,0.572,0.623,0.578,0.214,0.107,0.166,0.18,0.109
HCC-78,1,0.948,0.808,0.768,0.633,0.752,0.896,0.743,0.59,0.302,0.403,0.371,0.388,0.32,0.297,0.699,0.756,0.611,0.558,0.423
HCC-366,1.06,0.939,0.781,0.541,0.0913,1.14,0.762,0.751,0.483,0.188,0.091,0.0658,0.0515,0.0779,0.0476,0.619,0.569,0.387,0.313,0.0592
HCC-827,1.06,0.975,0.787,0.65,0.584,0.941,0.95,0.793,0.666,0.66,0.41,0.409,0.335,0.26,0.334,0.425,0.413,0.406,0.34,0.376
HOP-62,0.833,0.57,0.482,0.333,0.454,0.937,0.55,0.377,0.233,0.33,0.297,0.292,0.312,0.2,0.244,0.573,0.418,0.403,0.353,0.347
LC-2-ad,0.925,0.783,0.636,0.614,0.403,0.413,0.296,0.258,0.216,0.201,0.509,0.37,0.415,0.407,0.393,0.566,0.532,0.498,0.568,0.372
